Results reported in PMC9518264, “Design and synthesis of novel quinazolinone-based derivatives as EGFR inhibitors with antitumor activity” (Journal of Enzyme Inhibition and Medicinal Chemistry, 2022).

Experiments:
Experiment in all cases: cells
Type in all cases: cell-based
SF-539 = conditions: SF-539, 5 doses
HCT-116 = system: HCT-116
NCI/ADR-RES = system: NCI/ADR-RES
NCI-H322M = system: NCI-H322M
UACC-257 = system: UACC-257
NCI-H460 = system: NCI-H460
K-562 = system: K-562
KM12 = system: KM12
U251 = system: U251
SK-MEL-2 = system: SK-MEL-2
SR = system: SR
NCI-H226 = system: NCI-H226
A549/ATCC = system: A549/ATCC
HCC-2998 = system: HCC-2998
TK-10 = system: TK-10
RPMI-8226 = system: RPMI-8226
LOX IMIV = system: LOX IMIV
SF-268 = system: SF-268
MALME-3M = system: MALME-3M
SK-MEL-5 = system: SK-MEL-5
A498 = system: A498
SNB-19 = system: SNB-19
HCT-15 = system: HCT-15
SN12C = system: SN12C
[1] = Homo sapiens, 5 doses, read-out: LC50 (the source's name)
[2] = Homo sapiens, read-out: growth inhibition % (GI%)

Q: Which results are given for `O=C(CSc1nc2ccccc2c(=O)n1-c1ccc(Cl)cc1)NN=Cc1ccc(Oc2ccc(Cl)cc2)cc1` [6d, N'-(4–(4-chlorophenoxy)benzylidene)-2-((3–(4-chlorophenyl)-4-oxo-3,4-dihydroquinazolin-2-yl)thio)acetohydrazide]?
A: CC50 (SF-539; Homo sapiens, read-out: LC50 (the source's name)): 21.5 µM; TGI (SF-539): 6.32 µM; TGI (HCT-116; HCT-116, 5 doses): 3.74 µM; GI50 (HCT-116; Homo sapiens, HCT-116): 1.55 µM; inhibition at 10 µM (HCT-116; Homo sapiens, HCT-116, read-out: growth inhibition % (GI%)): > 100%; CC50 (HCT-116; Homo sapiens, HCT-116, 5 doses, read-out: LC50 (the source's name)): 9.03 µM; TGI (NCI/ADR-RES; 5 doses): 3.56 µM; GI50 (NCI/ADR-RES; Homo sapiens): 1.64 µM; CC50 (NCI/ADR-RES; [1]): 7.76 µM; inhibition at 10 µM (NCI/ADR-RES; [2]): 84.3%; TGI (NCI-H322M; 5 doses): 15.0 µM; GI50 (NCI-H322M; Homo sapiens): 3.02 µM; CC50 (NCI-H322M; [1]): 90.8 µM; inhibition at 10 µM (NCI-H322M; [2]): < 15%; GI50 (UACC-257; Homo sapiens, UACC-257): 4.62 µM; inhibition at 10 µM (UACC-257; Homo sapiens, UACC-257, read-out: growth inhibition % (GI%)): 41%; CC50 (UACC-257; Homo sapiens, UACC-257, 5 doses, read-out: LC50 (the source's name)): > 100 µM; TGI (UACC-257; UACC-257, 5 doses): 22.5 µM; GI50 (NCI-H460; Homo sapiens, NCI-H460): 0.789 µM; inhibition at 10 µM (NCI-H460; Homo sapiens, NCI-H460, read-out: growth inhibition % (GI%)): > 100%; LC50 (concentration killing 50% of cells) (NCI-H460; Homo sapiens, NCI-H460, 5 doses): 7.78 µM; TGI (NCI-H460; NCI-H460, 5 doses): 2.6 µM; GI50 (K-562; Homo sapiens, K562): 4.15 µM; inhibition at 10 µM (K-562; Homo sapiens, K562, read-out: growth inhibition % (GI%)): 77%; CC50 (K-562; Homo sapiens, K562, K-562, 5 doses, read-out: LC50 (the source's name)): > 100 µM; TGI (K-562; K-562, 5 doses): 20.2 µM; GI50 (KM12; Homo sapiens, KM12): 2.04 µM; inhibition at 10 µM (KM12; Homo sapiens, KM12, read-out: growth inhibition % (GI%)): 82.6%; CC50 (KM12; Homo sapiens, KM12, 5 doses, read-out: LC50 (the source's name)): 26.6 µM; TGI (KM12; KM12, 5 doses): 5.0 µM; GI50 (U251; Homo sapiens, U-251): 1.65 µM; inhibition at 10 µM (U251; Homo sapiens, U-251, read-out: growth inhibition % (GI%)): > 100%; CC50 (U251; Homo sapiens, U-251, U251, 5 doses, read-out: LC50 (the source's name)): 8.23 µM; TGI (U251; U251, 5 doses): 3.69 µM; GI50 (SK-MEL-2; Homo sapiens): 2.86 µM; inhibition at 10 µM (SK-MEL-2; Homo sapiens, SK-MEL-2, read-out: growth inhibition % (GI%)): 45.7%; CC50 (SK-MEL-2; Homo sapiens, SK-MEL-2, 5 doses, read-out: LC50 (the source's name)): 41.3 µM; TGI (SK-MEL-2; SK-MEL-2, 5 doses): 8.93 µM; TGI (SR; 5 doses): 6.86 µM; GI50 (SR; Homo sapiens): 1.84 µM; CC50 (SR; [1]): 31.9 µM; inhibition at 10 µM (SR; [2]): 67.1%; GI50 (NCI-H226; Homo sapiens, NCI-H226): 2.46 µM; inhibition at 10 µM (NCI-H226; Homo sapiens, NCI-H226, read-out: growth inhibition % (GI%)): 24.4%; LC50 (NCI-60 50% lethal concentration) (NCI-H226; Homo sapiens, NCI-H226, 5 doses): 33.2 µM; TGI (NCI-H226; NCI-H226, 5 doses): 6.59 µM; TGI (A549/ATCC; A549/ATCC, 5 doses): 14.0 µM; GI50 (A549/ATCC; Homo sapiens, A549): 3.25 µM; inhibition at 10 µM (A549/ATCC; Homo sapiens, A549, read-out: growth inhibition % (GI%)): 83.5%; LC50 (lethal concentration, 50% cell kill) (A549/ATCC; Homo sapiens, A549/ATCC, 5 doses): 83.3 µM; TGI (HCC-2998; HCC-2998, 5 doses): 3.81 µM; GI50 (HCC-2998; Homo sapiens, HCC 2998): 1.92 µM; inhibition at 10 µM (HCC-2998; Homo sapiens, HCC 2998, read-out: growth inhibition % (GI%)): 79.7%; LC50 (lethal concentration 50%) (HCC-2998; Homo sapiens, HCC-2998, 5 doses): 7.57 µM; GI50 (TK-10; Homo sapiens, TK-10): 5.97 µM; inhibition at 10 µM (TK-10; Homo sapiens, TK-10, read-out: growth inhibition % (GI%)): 60.3%; CC50 (TK-10; Homo sapiens, TK-10, 5 doses, read-out: LC50 (the source's name)): > 100 µM; TGI (TK-10; TK-10, 5 doses): 40.2 µM; GI50 (RPMI-8226; Homo sapiens, RPMI-8226): 2.98 µM; inhibition at 10 µM (RPMI-8226; Homo sapiens, RPMI-8226, read-out: growth inhibition % (GI%)): 75.3%; CC50 (RPMI-8226; Homo sapiens, RPMI-8226, 5 doses, read-out: LC50 (the source's name)): > 100 µM; TGI (RPMI-8226; RPMI-8226, 5 doses): 15.8 µM; inhibition at 10 µM (LOX IMIV; Homo sapiens, 60 cell, read-out: growth inhibition % (GI%)): > 100%; GI50 (LOX IMIV; Homo sapiens, LOX IMVI): 1.29 µM; CC50 (LOX IMIV; Homo sapiens, LOX IMVI, 5 doses, read-out: LC50 (the source's name)): 5.2 µM; TGI (LOX IMIV; LOX IMVI, 5 doses): 2.59 µM; GI50 (SF-268; Homo sapiens, SF-268): 3.85 µM; inhibition at 10 µM (SF-268; Homo sapiens, SF-268, read-out: growth inhibition % (GI%)): 44.2%; LC50 (SF-268; Homo sapiens, SF-268, 5 doses): > 100 µM; TGI (SF-268; SF-268, 5 doses): 23.9 µM; GI50 (MALME-3M; Homo sapiens, Malme-3M): 1.38 µM; inhibition at 10 µM (MALME-3M; Homo sapiens, Malme-3M, read-out: growth inhibition % (GI%)): > 100%; CC50 (MALME-3M; Homo sapiens, MALME-3M, 5 doses, read-out: LC50 (the source's name)): 5.55 µM; TGI (MALME-3M; MALME-3M, 5 doses): 2.77 µM; GI50 (SK-MEL-5; Homo sapiens, SK-MEL-5): 1.75 µM; inhibition at 10 µM (SK-MEL-5; Homo sapiens, SK-MEL-5, read-out: growth inhibition % (GI%)): 89.1%; CC50 (SK-MEL-5; Homo sapiens, SK-MEL-5, 5 doses, read-out: LC50 (the source's name)): 7.07 µM; TGI (SK-MEL-5; SK-MEL-5, 5 doses): 3.51 µM; TGI (A498; A498, 5 doses): 4.34 µM; GI50 (A498; Homo sapiens, A498): 1.94 µM; inhibition at 10 µM (A498; Homo sapiens, A498, read-out: growth inhibition % (GI%)): > 100%; CC50 (A498; Homo sapiens, A498, 5 doses, read-out: LC50 (the source's name)): 9.74 µM; GI50 (SNB-19; Homo sapiens, SNB-19): 3.36 µM; inhibition at 10 µM (SNB-19; Homo sapiens, SNB-19, read-out: growth inhibition % (GI%)): 71.5%; CC50 (SNB-19; Homo sapiens, SNB-19, 5 doses, read-out: LC50 (the source's name)): 53.2 µM; TGI (SNB-19; SNB-19, 5 doses): 12.7 µM; TGI (HCT-15; HCT-15, 5 doses): 7.48 µM; GI50 (HCT-15; Homo sapiens, HCT-15): 2.41 µM; inhibition at 10 µM (HCT-15; Homo sapiens, HCT-15, read-out: growth inhibition % (GI%)): 89.6%; LC50 (concentration causing 50% net cell kill) (HCT-15; Homo sapiens, HCT-15, 5 doses): 28.5 µM; TGI (SN12C; 5 doses): 4.14 µM; GI50 (SN12C; Homo sapiens): 1.74 µM; CC50 (SN12C; [1]): 9.84 µM; inhibition at 10 µM (SN12C; [2]): 54.8%
